Laboratory results published in PubChem BioAssay (NCI).
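Method: 48-hour compound exposure of cells in 96-well plates, five concentrations, linear interpolation of endpoints. TGI: total growth inhibition.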

Assays:
Experiment in all cases: growth of human tumour cells (NCI), 48 h
HT29 colon = test system: HT29 colon
T-47D breast = test system: T-47D breast
HOP-62 NSCLC = test system: HOP-62 NSCLC
DMS 114 small cell lung = test system: DMS 114 small cell lung
KM20L2 colon = test system: KM20L2 colon
XF 498 CNS = test system: XF 498 CNS
SNB-78 CNS = test system: SNB-78 CNS
UACC-257 melanoma = test system: UACC-257 melanoma
LOX IMVI melanoma = test system: LOX IMVI melanoma
DMS 273 small cell lung = test system: DMS 273 small cell lung
NCI-H23 lung = test system: NCI-H23 lung
SF-295 CNS = test system: SF-295 CNS
MDA-MB-435 = test system: MDA-MB-435
DLD-1 colon = test system: DLD-1 colon
EKVX NSCLC = test system: EKVX NSCLC
HOP-18 NSCLC = test system: HOP-18 NSCLC

In the case of `CCC1CN2CCc3cc(OC)c(OC)cc3C2CC1CC1c2cc(OC)c(OC)cc2CCN1C(=O)C(Cc1c[nH]c2ccccc12)NC(=O)OC(C)(C)C` (stereo unspecified), the TGI (HT29 colon) is reported as 4.01 µM, the TGI (T-47D breast) is reported as 4.16 µM and the TGI (HOP-62 NSCLC) is reported as 14.5 µM. It also gave a TGI (DMS 114 small cell lung) of 3.06 µM, a TGI (KM20L2 colon) of 3.8 µM and a TGI (XF 498 CNS) of 3.19 µM. For the same molecule, the TGI (SNB-78 CNS) was 40.5 µM, the TGI (UACC-257 melanoma) was 8.53 µM and the TGI (LOX IMVI melanoma) was 3.58 µM. For the same molecule, the TGI (DMS 273 small cell lung) was 19.1 µM, the TGI (NCI-H23 lung) was 16.6 µM and the TGI (SF-295 CNS) was 9.31 µM. For the same molecule, the TGI (MDA-MB-435) was 3.4 µM, the TGI (DLD-1 colon) was 27.4 µM and the TGI (EKVX NSCLC) was 10 µM. The TGI (HOP-18 NSCLC) was 18.7 µM.
